According to ChEMBL document CHEMBL1142038, “Novel and potent NPY5 receptor antagonists derived from virtual screening and iterative parallel chemistry design” (Bioorg Med Chem Lett, 2005):

The compounds below were run against T1, Neuropeptide Y receptor type 5 (Mus musculus, UniProt O70342) (assay: Inhibitory concentration against Neuropeptide Y receptor type 5 in mouse).
T1 sequence (O70342 whole entry): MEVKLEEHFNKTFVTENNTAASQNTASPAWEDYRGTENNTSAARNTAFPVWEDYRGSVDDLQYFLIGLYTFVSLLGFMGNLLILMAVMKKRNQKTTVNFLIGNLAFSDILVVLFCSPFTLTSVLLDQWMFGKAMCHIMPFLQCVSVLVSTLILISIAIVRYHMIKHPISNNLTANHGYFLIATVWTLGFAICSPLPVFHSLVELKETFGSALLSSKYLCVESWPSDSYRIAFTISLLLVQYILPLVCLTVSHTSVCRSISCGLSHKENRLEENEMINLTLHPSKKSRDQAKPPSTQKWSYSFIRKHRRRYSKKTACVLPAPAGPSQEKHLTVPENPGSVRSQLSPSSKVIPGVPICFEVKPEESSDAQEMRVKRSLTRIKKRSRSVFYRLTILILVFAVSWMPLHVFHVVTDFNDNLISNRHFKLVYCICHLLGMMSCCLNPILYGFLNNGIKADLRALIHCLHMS
Format: organism-based
O=C(c1cnc(Nc2cccc(C(F)(F)F)c2)s1)c1ccccc1C(F)(F)F showed an IC50 of 138 nM.
For CCc1ccccc1C(=O)c1cnc(Nc2cccc(C#N)c2)s1, the IC50 was 2.8 nM.
In the case of CCc1ccccc1C(=O)c1cnc(Nc2cccc(C(F)(F)F)c2)s1, the IC50 is reported as 32 nM.
For Cc1ccccc1C(=O)c1cnc(Nc2cccc(C#N)c2)s1, the IC50 was 4.2 nM.
COc1ccc(C(=O)c2cnc(Nc3cccc(C#N)c3)s2)cc1 was tested, and the IC50 was 2230 nM.
Work on O=C(c1cnc(Nc2ccc(Cl)cc2)s1)c1ccccc1F yielded an IC50 of 1670 nM.
N#Cc1cccc(Nc2ncc(C(=O)c3ccccc3F)s2)c1 gave an IC50 of 19 nM.
With N#Cc1cccc(Nc2ncc(C(=O)c3ccccc3C(F)(F)F)s2)c1 the IC50 was 20 nM.
For Cc1cc(C(=O)c2cnc(Nc3cccc(C#N)c3)s2)c(C)s1, the IC50 was 14 nM.
O=C(c1cccc(F)c1)c1cnc(Nc2cccc(C(F)(F)F)c2)s1 showed an IC50 of 885 nM.
COc1cccc(Nc2ncc(C(=O)c3ccccc3F)s2)c1 gave an IC50 of 1000 nM.
Compound Cc1ccccc1C(=O)c1cnc(Nc2cccc(C(F)(F)F)c2)s1 has an IC50 of 63 nM.
Cc1cc(C(=O)c2cnc(Nc3cccc(C(F)(F)F)c3)s2)c(C)s1 showed an IC50 of 395 nM.

Each compound was assayed against T1, Neuropeptide Y receptor type 5 (assay: Inhibitory concentration against Neuropeptide Y receptor type 5 in mouse; Inactive).
With O=C(c1cnc(Nc2cc(Cl)cc(Cl)c2)s1)c1ccccc1F the IC50 was “Not Active”.
